Common to all, as to type: cell-based, human
Assay [1] relates to HUVEC. Nature of the assay: Cell cycle analysis by flow cytometry (PI), high glucose-induced G1 phase arrest. The conditions noted are these: 5 μM and 20 μM pretreatment 2 hours, 33 mM high glucose 48 hours, dose-dependent. The procedure:
(§1) Similar to Experimental Example 1, a high-fat diet evaluation system at the cellular level was established.
(§2) Specifically, two types of vascular endothelial cells, namely, HUVEC and HPAEC cells, were pretreated with Saikosaponin C at concentrations of 5 μM and 20 μM for 2 hours, then treated with high glucose (33 mM) for 48 hours, and then immobilized with cold 70% ethanol. The DNA of the immobilized vascular endothelial cells was stained with PI (propidium iodide, 50 μg/ml) solution and the cell cycle was analyzed using a flow cytometer. In addition, the expression of cell cycle regulatory proteins such as p21, p27, and p16 was analyzed after treatment with high glucose (33 mM) for 36 hours.
(§3) Since cellular senescence is closely related to the arrest in the G1 phase of the cell cycle, the cell cycle was evaluated using flow cytometry (FIG. 4A and FIG. 4B). In addition, the expression of p21, p27, and p16 proteins, which are G1 phase growth arrest-inducing proteins, was measured through Western blotting (FIG. 4C, FIG. 4D).
Background: In flow cytometry, cells or beads pass a laser one at a time.

Another assay concerns HPAEC. The assay can be described thus: Trypan blue staining, viable cell count under high glucose. To be noted: 5 μM and 20 μM pretreatment 2 hours, 33 mM high glucose 1 week, dose-dependent. On the procedure: (§4) Similar to Experimental Example 1, a high-fat diet evaluation system at the cell level was established.
(§5) Specifically, two types of vascular endothelial cells, namely, HUVEC and HPAEC cells, were pretreated with Saikosaponin C at concentrations of 5 μM and 20 μM for 2 hours, and then treated with high glucose at a concentration of 33 mM for 1 week. The number of viable cells was then analyzed by Trypan blue staining. The number of viable cells was based on the number of cells in the control group (none) set to “100”.

The test system of assay [2] is HUVEC. The assay is described as above. The conditions noted are these: 5 μM and 20 μM pretreatment 2 hours, 33 mM high glucose 1 week, dose-dependent. On the procedure:
as §4, §5

Assay [3] relates to THP-1 cells differentiated into macrophages. Nature of the assay: Macrophage foam cell formation by ox-LDL (Oil Red O staining). To be noted: PMA-differentiated THP-1 macrophages; 5 μM and 20 μM pretreatment 2 hours, ox-LDL 100 μg/ml 24 hours. On the procedure: The differentiated macrophages were pretreated with Saikosaponin C at concentrations of 5 μM and 20 μM for 2 hours, and then treated with oxidized LDL (ox-LDL) (100 μg/ml), a foam cell inducer, for 24 hours. Then, the formation of foam cells from macrophages was observed. The foam cell formation was evaluated by microscopic analysis after Oil Red O staining of adsorbed lipid molecules and absorbance analysis using a microplate reader.
The nucleus was stained with hematoxylin dye for 1 minute.

Assay [4] concerns p21, p27, and p16 in HUVEC. The assay can be described thus: Western blotting of G1 phase growth arrest-inducing proteins. To be noted: 5 μM and 20 μM pretreatment 2 hours, 33 mM high glucose 36 hours, dose-dependent. The procedure: as §1, §2, §3
On the technique in general: A western blot detects proteins with antibodies after separation by electrophoresis.

Assay [5] has as its system p21, p27, and p16 in HPAEC. The description is as above. To be noted: 5 μM and 20 μM pretreatment 2 hours, 33 mM high glucose 36 hours, dose-dependent. On the procedure: as §1, §2, §3
The test system of the next assay is HCAEC. The assay can be described thus: Monocyte-endothelial cell adhesion caused by TNF-α (Calcein AM-labeled THP-1). The conditions noted are these: 5 μM and 20 μM pretreatment 2 hours, TNF-α 20 ng/ml 8 hours, THP-1 monocytes. On the procedure:
(§6) Specifically, two types of vascular endothelial cells, namely, HUVEC (human umbilical vein endothelial cells) and HCAEC (human coronary artery endothelial cells), were pretreated with Saikosaponin C at concentrations of 5 μM and 20 μM for 2 hours, and then treated with TNF-α (20 ng/ml) for 8 hours. Then, adhesion of monocyte-vascular endothelial cell and expression of cell adhesion molecules (ICAM-1, VCAM-1) of vascular endothelial cells were observed. […] The adhesion of monocyte-endothelial cells was evaluated by imaging analysis using a confocal microscope and fluorescence analysis using a microplate reader, and expression of adhesion proteins (ICAM-1 and VCAM-1) was evaluated by Western blotting.
(§7) Calcein AM fluorescence was analyzed using a confocal microscope and a microplate reader, and the expression of cell adhesion proteins (ICAM-1, VCAM-1) were evaluated through Western blotting.
(§8) FIGS. 9A and 9B show the results of analysis of monocyte-endothelial cell adhesion in two types of vascular endothelial cells (HUVEC, HCAEC) using a confocal microscope, and FIGS. 9C and 9D show the results of analysis of Calcein AM fluorescence (at an excitation wavelength of 488 nm, and at an emission wavelength of 517 nm) in the same experiment using a microplate reader. […]

Assay [6] relates to HUVEC. Described as above. To be noted: 5 μM and 20 μM pretreatment 2 hours, TNF-α 20 ng/ml 8 hours, THP-1 monocytes. On the procedure: as §6, §7, §8
Assay [7] relates to eNOS / nitric oxide in HPAEC. The assay can be described thus: NOS-NO signaling: nitric oxide level, eNOS activity, expression, phosphorylation. The conditions noted are these: 5 μM and 20 μM pretreatment 2 hours, 33 mM high glucose 36 hours, dose-dependent. On the procedure: as §1
(§9) Specifically, two types of vascular endothelial cells, namely, HUVEC and HPAEC cells, were pretreated with Saikosaponin C at concentrations of 5 μM and 20 μM for 2 hours, and then treated with high glucose at a concentration of 33 mM for 36 hours. Then, the nitric oxide (NO) concentration, endothelial nitric oxide synthase (eNOS) activity, protein expression, and phosphorylation level were analyzed.
(§10) Nitric oxide production was measured using a Nitric Oxide Assay Kit (FIG. 6A and FIG. 6B). Specifically, nitrate (NO3^−) and nitrite (NO2^−) levels were measured using nitrate reductase and Griess reagent. Nitric oxide synthase activity was measured using a NOS Activity Assay Kit (FIG. 6C and FIG. 6D) and the expression and phosphorylation (Ser114) of NOS were measured by Western blotting (FIG. 6E and FIG. 6F).

Assay [8] concerns eNOS / nitric oxide in HUVEC. The assay is described as above. The conditions noted are these: 5 μM and 20 μM pretreatment 2 hours, 33 mM high glucose 36 hours, dose-dependent. The procedure: as §1, §9, §10

As for `CC1O[C@@H](O[C@@H]2C(CO[C@@H]3OC(CO)[C@@H](O)C(O)C3O)O[C@@H](O[C@H]3CC[C@]4(C)[C@H]5C=C[C@]67OC[C@@]8(CCC(C)(C)C[C@H]86)[C@@H](O)C[C@@]7(C)[C@]5(C)CC[C@H]4C3(C)C)C(O)C2O)C(O)C(O)[C@H]1O` (stereo partly shown) [Saikosaponin C], the “high glucose-induced G1 phase arrest” value in the assay with HUVEC [1] is listed as “significantly abolished”. The “high glucose-induced cell growth inhibition (number of viable cells, Trypan blue)” value in the assay on HPAEC and in the assay with HUVEC [2] was “significantly alleviated” each time. Moreover, in assay [3], the “foam cell formation by lipid deposition (Oil Red O)” value is reported as “suppressed”. For the same compound, the “high glucose-induced increase in the expression of p21, p27, and p16 proteins” value in assay [4] and in assay [5] was “significantly abolished” throughout. In addition, the “monocyte-endothelial cell adhesion caused by TNF-α” value in the assay with HCAEC and in the assay with HUVEC [6] was “inhibited” throughout. Further, the “high glucose-induced decrease in NOS-NO signaling (NO level, eNOS enzymatic activity, protein expression, phosphorylation)” value in assay [7] and in assay [8] was “significantly alleviated” each time.
